Measurements reported in article PMC8154581, “Discovery of Novel Thiophene-arylamide Derivatives as DprE1 Inhibitors with Potent Antimycobacterial Activities” (Journal of Medicinal Chemistry, 2021).
Values after ≈ are worked out from the molar mass of the structure shown. Like-named read-outs stand apart in the source and are kept apart here.

Experiments:
M. tuberculosis H37Rv = assay: MIC against replicating M. tuberculosis H37Rv, microplate Alamar blue assay (MABA); assay type: cell-based
Vero cells = assay: Cytotoxicity assay in Vero cells (MTT); assay type: cell-based; conditions: for IC50: Chlorocebus sabaeus, Vero cells, 48 h, read-out: IC50 (Vero)
[1] = Mycobacterium tuberculosis, H37RV, against M. tuberculosis H37Rv, Tables 1-3, read-out: MIC
[2] = Mycobacterium tuberculosis, H37RV, supplementary CSV, same values as Tables 1-3, read-out: Minimal inhibit concentration
[3] = against M. tuberculosis H37Rv, Tables 1-3

| Compound | MIC (M. tuberculosis H37Rv; [1]) [µg/mL] | MIC (M. tuberculosis H37Rv; [2]) [µg/mL] | MIC (M. tuberculosis H37Rv; [3]) [µg/mL] | SI (Vero cells) | IC50 (Vero cells) [µg/mL] | melting point [°C] | MIC (M. tuberculosis H37Rv; Mycobacterium tuberculosis, H37RV, against M. tuberculosis H37Rv, Tables 1-3) [µg/mL] | MIC (M. tuberculosis H37Rv; Mycobacterium tuberculosis, H37RV, Table 4, read-out: MIC H37Rv) [µg/mL] | Minimal inhibit concentration (M. tuberculosis H37Rv; supplementary CSV, same values as Tables 1-3) [µg/mL] |
| --- | --- | --- | --- | --- | --- | --- | --- | --- | --- |
| CCCNC(=O)c1ccc(C(=O)Nc2sccc2C(=O)NC(=O)OCC)cc1 [Compound 23a, Ethyl (2-(4-(Propylcarbamoyl)benzamido)thiophene-3-carbonyl)carbamate] | 0.2 (≈ 0.496 µM) | 0.2 (≈ 0.496 µM) | 0.20 (≈ 0.496 µM) | >320 | > 64 | 219 to 220 | – | – | – |
| CCOC(=O)NC(=O)c1ccsc1NC(=O)c1ccc(C(=O)N(C)CC)cc1 [Compound 23b, Ethyl (2-(4-(Ethyl(methyl)carbamoyl)benzamido)thiophene-3-carbonyl)carbamate] | 0.95 (≈ 2.35 µM) | 0.95 (≈ 2.35 µM) | – | >67 | > 64 | 161 to 162 | – | – | – |
| CCOC(=O)NC(=O)c1ccsc1NC(=O)c1ccc(C(=O)N(CC)CC)cc1 [Compound 23c, Ethyl (2-(4-(Diethylcarbamoyl)benzamido)thiophene-3-carbonyl)carbamate] | 0.28 (≈ 0.671 µM) | 0.28 (≈ 0.671 µM) | – | >229 | > 64 | 178 to 179 | – | – | – |
| CCOC(=O)NC(=O)c1ccsc1NC(=O)c1ccc(C(=O)NC23CC4CC(CC(C4)C2)C3)cc1 [Compound 23d, Ethyl (2-(4-(((3S,5S,7S)-Adamantan-1-yl)carbamoyl)benzamido)thiophene-3-carbonyl)carbamate] | 0.12 (≈ 0.242 µM) | 0.12 (≈ 0.242 µM) | – | 16 | 1.96 (≈ 3.95 µM) | 157 to 158 | – | – | – |
| CCOC(=O)NC(=O)c1ccsc1NC(=O)c1ccc(C(=O)NC2CCCCC2)cc1 [Compound 23e, Ethyl (2-(4-(Cyclohexylcarbamoyl)benzamido)thiophene-3-carbonyl)carbamate] | 0.5 (≈ 1.13 µM) | 0.5 (≈ 1.13 µM) | – | >128 | > 64 | > 250 | – | – | – |
| CCOC(=O)NC(=O)c1ccsc1NC(=O)c1ccc(C(=O)NC2CCC(C)(C)CC2)cc1 [Compound 23f, Ethyl (2-(4-((4,4-Dimethylcyclohexyl)carbamoyl)benzamido)thiophene-3-carbonyl)carbamate] | 0.94 (≈ 1.99 µM) | 0.94 (≈ 1.99 µM) | – | >68 | > 64 | > 250 | – | – | – |
| CCOC(=O)NC(=O)c1ccsc1NC(=O)c1ccc(C(=O)Nc2ccccc2)cc1 [Compound 23g, Ethyl (2-(4-(Phenylcarbamoyl)benzamido)thiophene-3-carbonyl)carbamate] | 0.12 (≈ 0.274 µM) | 0.12 (≈ 0.274 µM) | – | 191 | 23 (≈ 52.5 µM) | > 250 | – | – | – |
| CCOC(=O)NC(=O)c1ccsc1NC(=O)c1ccc(C(=O)N2CCCC2)cc1 [Compound 23i, Ethyl (2-(4-(Pyrrolidine-1-carbonyl)benzamido)thiophene-3-carbonyl)carbamate] | 0.2 (≈ 0.481 µM) | 0.2 (≈ 0.481 µM) | – | – | > 64 | – | – | – | – |
| CCOC(=O)NC(=O)c1ccsc1NC(=O)c1ccc(C(=O)N2CCCCCC2)cc1 [Compound 23k, Ethyl (2-(4-(Azepane-1-carbonyl)benzamido)thiophene-3-carbonyl)carbamate] | 0.22 (≈ 0.496 µM) | 0.22 (≈ 0.496 µM) | – | – | 48.4 (≈ 109 µM) | – | – | – | – |
| CCOC(=O)NC(=O)c1ccsc1NC(=O)c1ccc(C(=O)N2CCC(C)CC2)cc1 [Compound 23l, Ethyl (2-(4-(4-Methylpiperidine-1-carbonyl)benzamido)thiophene-3-carbonyl)carbamate] | 0.03 (≈ 0.0676 µM) | 0.03 (≈ 0.0676 µM) | – | – | > 64 | – | – | – | – |
| CCOC(=O)NC(=O)c1ccsc1NC(=O)c1ccc(C(=O)N2CCC(F)(F)CC2)cc1 [Compound 23n, Ethyl (2-(4-(4,4-Difluoropiperidine-1-carbonyl)benzamido)thiophene-3-carbonyl)carbamate] | 0.25 (≈ 0.537 µM) | 0.25 (≈ 0.537 µM) | – | – | > 64 | – | – | – | – |
| CCOC(=O)NC(=O)c1ccsc1NC(=O)c1ccc(C(=O)N2CCOCC2)cc1 [Compound 23o, Ethyl (2-(4-(Morpholine-4-carbonyl)benzamido)thiophene-3-carbonyl)carbamate] | 1.66 (≈ 3.85 µM) | 1.66 (≈ 3.85 µM) | – | – | – | 159 to 160 | – | – | – |
| CCOC(=O)NC(=O)c1ccsc1NC(=O)c1cccc(C(=O)N2CCCCC2)c1 [Compound 24a, Ethyl (2-(3-(Piperidine-1-carbonyl)benzamido)thiophene-3-carbonyl)carbamate] | 3.7 (≈ 8.61 µM) | 3.7 (≈ 8.61 µM) | – | – | – | – | – | – | – |
| CCOC(=O)NC(=O)c1ccsc1NC(=O)c1ccc(C(=O)N2CCCCC2)cc1F [Compound 24b, Ethyl (2-(2-Fluoro-4-(piperidine-1-carbonyl)benzamido)thiophene-3-carbonyl)carbamate] | 0.12 (≈ 0.268 µM) | 0.12 (≈ 0.268 µM) | – | – | > 64 | – | – | – | – |
| CCOC(=O)NC(=O)c1ccsc1NC(=O)c1ccc(C(=O)N2CCCCC2)c(C)c1 [Compound 24g, Ethyl (2-(3-Methyl-4-(piperidine-1-carbonyl)benzamido)thiophene-3-carbonyl)carbamate] | – | 0.12 (≈ 0.271 µM) | – | – | 53.1 (≈ 120 µM) | – | 0.12 (≈ 0.271 µM) | – | – |
| CCOC(=O)NC(=O)c1ccsc1NC(=O)c1ccc2cc(C(=O)N3CCCCC3)ccc2c1 [Compound 24h, Ethyl (2-(6-(Piperidine-1-carbonyl)-2-naphthamido)thiophene-3-carbonyl)carbamate] | 3.13 (≈ 6.53 µM) | 3.13 (≈ 6.53 µM) | – | – | – | 177 to 178 | – | – | – |

| Compound | MIC (M. tuberculosis H37Rv; [1]) [µg/mL] | MIC (M. tuberculosis H37Rv; [2]) [µg/mL] | MIC (M. tuberculosis H37Rv; [3]) [µg/mL] | SI (Vero cells) | IC50 (Vero cells) [µg/mL] | melting point [°C] | MIC (M. tuberculosis H37Rv; Mycobacterium tuberculosis, H37RV, against M. tuberculosis H37Rv, Tables 1-3) [µg/mL] | MIC (M. tuberculosis H37Rv; Mycobacterium tuberculosis, H37RV, Table 4, read-out: MIC H37Rv) [µg/mL] | Minimal inhibit concentration (M. tuberculosis H37Rv; supplementary CSV, same values as Tables 1-3) [µg/mL] |
| --- | --- | --- | --- | --- | --- | --- | --- | --- | --- |
| CCOC(=O)NC(=O)c1ccsc1NC(=O)c1ccc(-c2ccc(C(=O)N3CCCCC3)cc2)cc1 [Compound 24i, Ethyl (2-(4′-(Piperidine-1-carbonyl)-[1,1′-biphenyl]-4-carboxamido)thiophene-3-carbonyl)carbamate] | 7.76 (≈ 15.3 µM) | 7.76 (≈ 15.3 µM) | – | – | – | – | – | – | – |
| CCOC(=O)NC(=O)c1ccsc1NC(=O)c1cc(C(=O)N2CCCCC2)c[nH]1 [Compound 24l, Ethyl (2-(4-(Piperidine-1-carbonyl)-1H-pyrrole-2-carboxamido)thiophene-3-carbonyl)carbamate] | 1.77 (≈ 4.23 µM) | 1.77 (≈ 4.23 µM) | – | – | – | 183 to 184 | – | – | – |
| CCNC(=O)NC(=O)c1ccsc1NC(=O)c1ccc(C(=O)N2CCCCC2)cc1 [Compound 25c, N-(Ethylcarbamoyl)-2-(4-(piperidine-1-carbonyl)benzamido)thiophene-3-carboxamide] | > 32 | > 32 | – | – | – | 223 to 224 | – | – | – |
| NC(=O)c1ccsc1NC(=O)c1ccc(C(=O)N2CCCCC2)cc1 [Compound 25d, 2-(4-(Piperidine-1-carbonyl)benzamido)thiophene-3-carboxamide] | > 32 | > 32 | – | – | – | – | – | – | – |
| COC(=O)C1CN(C(=O)c2ccsc2NC(=O)c2ccc(C(=O)N3CCCCC3)cc2)C1 [Compound 25e, Methyl 1-(2-(4-(Piperidine-1-carbonyl)benzamido)thiophene-3-carbonyl)azetidine-3-carboxylate] | > 32 | > 32 | – | – | – | 154 to 155 | – | – | – |
| COC(=O)C1CCN(C(=O)c2ccsc2NC(=O)c2ccc(C(=O)N3CCCCC3)cc2)CC1 [Compound 25f, Methyl 1-(2-(4-(Piperidine-1-carbonyl)benzamido)thiophene-3-carbonyl)piperidine-4-carboxylate] | 15.5 (≈ 32.1 µM) | 15.5 (≈ 32.1 µM) | – | – | – | 169 to 170 | – | – | – |
| COC(=O)N1CCN(C(=O)c2ccsc2NC(=O)c2ccc(C(=O)N3CCCCC3)cc2)CC1 [Compound 25g, Methyl 4-(2-(4-(Piperidine-1-carbonyl)benzamido)thiophene-3-carbonyl)piperazine-1-carboxylate] | > 32 | > 32 | – | – | – | 113 to 114 | – | – | – |
| CCOC(=O)N1CCN(C(=O)c2ccsc2NC(=O)c2ccc(C(=O)N3CCCCC3)cc2)CC1 [Compound 25h, Ethyl 4-(2-(4-(Piperidine-1-carbonyl)benzamido)thiophene-3-carbonyl)piperazine-1-carboxylate] | > 32 | > 32 | – | – | – | 134 to 135 | – | – | – |
| Cc1cnc(NC(=O)c2ccsc2NC(=O)c2ccc(C(=O)N3CCCCC3)cc2)s1 [Compound 25i, N-(5-Methylthiazol-2-yl)-2-(4-(piperidine-1-carbonyl)benzamido)thiophene-3-carboxamide] | > 32 | > 32 | – | – | – | 236 to 238 | – | – | – |
| Cc1cnc(NC(=O)c2ccsc2NC(=O)c2ccc(C(=O)N3CCCCC3)cc2)cn1 [Compound 25m, N-(5-Methylpyrazin-2-yl)-2-(4-(piperidine-1-carbonyl)benzamido)thiophene-3-carboxamide] | > 32 | > 32 | – | – | – | 177 to 179 | – | – | – |
| Cc1cccc(NC(=O)c2ccsc2NC(=O)c2ccc(C(=O)N3CCCCC3)cc2)n1 [Compound 25n, N-(6-Methylpyridin-2-yl)-2-(4-(piperidine-1-carbonyl)benzamido)thiophene-3-carboxamide] | > 32 | > 32 | – | – | – | 171 to 174 | – | – | – |
| Cc1cc(C)nc(NC(=O)c2ccsc2NC(=O)c2ccc(C(=O)N3CCCCC3)cc2)n1 [Compound 25p, N-(4,6-Dimethylpyrimidin-2-yl)-2-(4-(piperidine-1-carbonyl)benzamido)thiophene-3-carboxamide] | > 32 | > 32 | – | – | – | 189 to 190 | – | – | – |
| Cc1ccc2sc(NC(=O)c3ccsc3NC(=O)c3ccc(C(=O)N4CCCCC4)cc3)nc2c1 [Compound 25q, N-(5-Methylbenzo[d]thiazol-2-yl)-2-(4-(piperidine-1-carbonyl)benzamido)thiophene-3-carboxamide] | > 32 | > 32 | – | – | – | > 250 | – | – | – |
| COc1nc2ccc(Br)cc2cc1[C@@H](c1ccccc1)[C@@](O)(CCN(C)C)c1cccc2ccccc12 [bedaquiline, reference compound] | – | – | – | – | – | – | – | 0.036 (≈ 0.0648 µM) | – |
| N-(4-Methylpyridin-2-yl)-2-(4-(piperidine-1-carbonyl)benzamido)thiophene-3-carboxamide [Compound 25o] | – | – | >32 | – | – | – | – | – | >32 |
